# ChEMBL document CHEMBL1201862, “PubChem BioAssay data set” (2004)
#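 Cells were grown in 96-well plates and exposed to each compound for 48 hours at five concentrations; endpoints were interpolated linearly between bracketing concentrations, or set to the highest concentration if not reached. Here, GI50 denotes the concentration required for 50% inhibition of growth.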 Calls of active or inactive are those of the source. No stated cut-off is given here; in the data, active = GI50 up to about 1.1 µM and inactive = higher.
# Key:
# Test in all cases: inhibition of tumour cell growth, NCI panel, 48 h
# [1] = system: A549
# [2] = system: ACHN
# [3] = system: COLO 205
# [4] = system: DMS-273
# [5] = system: EKVX
# [6] = system: HCC 2998
# [7] = system: HCT-15
# [8] = system: HL-60
# [9] = system: HT-29
# [10] = system: IGROV-1
# [11] = system: NCI-H522
# [12] = system: OVCAR-4
# [13] = system: SF-268
# [14] = system: SK-MEL-28
# [15] = system: SK-MEL-5
# [16] = system: SK-OV-3
# [17] = system: SN12C
# [18] = system: RPMI-8226
Compound,GI50 [1],GI50 [2],GI50 [3],GI50 [4],GI50 [5],GI50 [6],GI50 [7] [µM],GI50 [8],GI50 [9],GI50 [10],GI50 [11],GI50 [12],GI50 [13],GI50 [14],GI50 [15],GI50 [16],GI50 [17],GI50 [18]
COC1OC2COC(C)(C)OC2C(OC(C)=O)C1NC(=O)N(CCCl)N=O (configuration not stated),83 µM (inactive),> 100 µM (inactive),> 100 µM (inactive),> 100 µM (inactive),> 100 µM (inactive),> 100 µM (inactive),> 100,11.2 µM (inactive),> 100 µM (inactive),> 100 µM (inactive),11.7 µM (inactive),> 100 µM (inactive),8.65 µM (inactive),> 100 µM (inactive),> 100 µM (inactive),> 100 µM (inactive),> 100 µM (inactive),
N#Cc1c2ccccc2cn1-c1ccc(F)cc1,24.6 µM (inactive),27.2 µM (inactive),26.2 µM (inactive),> 10 µM (inactive),,43.9 µM (inactive),> 10,4.62 µM (inactive),23.5 µM (inactive),67.6 µM (inactive),14.4 µM (inactive),8.73 µM (inactive),24.5 µM (inactive),47.8 µM (inactive),> 10 µM (inactive),,,22 µM (inactive)
S=c1cc(S)c2c(=S)sc3nc4ccccn4c(=S)c3c2s1,> 100 µM (inactive),> 100 µM (inactive),,63.4 µM (inactive),81.8 µM (inactive),39.5 µM (inactive),49.8,36.1 µM (inactive),45.2 µM (inactive),,,> 100 µM (inactive),,> 100 µM (inactive),38.5 µM (inactive),,48.8 µM (inactive),> 100 µM (inactive)
C/C=C(\CCOS(=O)(=O)c1ccc(C)cc1)[Si](C)(C)C,> 100 µM (inactive),> 100 µM (inactive),> 100 µM (inactive),> 100 µM (inactive),> 100 µM (inactive),> 100 µM (inactive),> 100,> 100 µM (inactive),> 100 µM (inactive),> 100 µM (inactive),> 100 µM (inactive),,> 100 µM (inactive),> 100 µM (inactive),> 100 µM (inactive),> 100 µM (inactive),> 100 µM (inactive),> 100 µM (inactive)
Cc1ccc([S+]([O-])C(C)C(Cl)c2ccccc2)cc1 (configuration not stated),,> 100 µM (inactive),30.7 µM (inactive),> 100 µM (inactive),,> 100 µM (inactive),> 100,,38.8 µM (inactive),60.4 µM (inactive),28.9 µM (inactive),> 100 µM (inactive),> 100 µM (inactive),> 100 µM (inactive),43.6 µM (inactive),> 100 µM (inactive),> 100 µM (inactive),35.9 µM (inactive)
N#CC12CCC1C1CCCCC12N1CCSCC1 (configuration not stated),> 100 µM (inactive),> 100 µM (inactive),> 100 µM (inactive),> 100 µM (inactive),,> 100 µM (inactive),> 100,16.3 µM (inactive),> 100 µM (inactive),> 100 µM (inactive),,> 10 µM (inactive),,> 100 µM (inactive),,,> 100 µM (inactive),51.1 µM (inactive)
N#Cc1c2c(c(N=[N+]=[N-])n3c1nc1ccccc13)CCCC2,4.67 µM (inactive),2.16 µM (inactive),3.27 µM (inactive),2.37 µM (inactive),16.9 µM (inactive),12.6 µM (inactive),2.07,2.32 µM (inactive),1.98 µM (inactive),2.72 µM (inactive),,2.49 µM (inactive),3.49 µM (inactive),4.12 µM (inactive),18.3 µM (inactive),1.8 µM (inactive),2.14 µM (inactive),1.71 µM (inactive)
